Source: US10383880B2 (Reset Therapeutics, Inc., priority 2012, dated 2019)

Each compound was assayed on Per2-dLuc U2OS reporter cells (assay: Per2 assay for evaluating the potency of test compounds (high-throughput circadian assay)). Conditions: Homo sapiens, U2OS, stable U2OS reporter cells harboring Per2-dLuc; luminescence monitored over 4-5 days at 35° C.
Type: cell-based
Experimental: Compounds were screened by using a high-throughput circadian assay system as previously described in Zhang, E. E. et al. Cell, 2009, 139, 199-210. In brief, stable U2OS reporter cells harboring Per2-dLuc were plated at a density of 8,000 cells/well in Corning 96-well, solid white, flat bottom, TC-treated microplates (Corning®), and incubated for 24 hours at 37° C. in the presence of 5% CO2. The cells were then synchronized by serum shock by media exchange to a minimal explant media (10 mM HEPES (pH 7.0), 2% B27, 1×PSG (Invitrogen®), and 1.0 mM beetle luciferin (Promega®)) followed by the addition of the compounds of formula I dissolved in dimethylsulfoxide (0.5% final dimethylsulfoxide concentration). Gene expression was monitored by measuring luminescence (TecanR M200) over 4-5 days at 35° C. The period, amplitude, and phase of the associated circadian rhythms were determined using Multicycle™ software (Actimetrics, Inc). EC50 values of the compounds of formula I were calculated using Graphpad™ (Prism®).
`CS(=O)(=O)NCC(O)Cn1c2ccc(F)cc2c2ccc(F)cc21` (stereo not drawn) [Compound 168, N-(3-(2,6-Difluoro-9H-carbazol-9-yl)-2-hydroxypropyl)methanesulfonamide] showed an EC50 of 391 nM.
In the case of `CS(=O)(=O)N(CC(O)Cn1c2ccccc2c2ccccc21)C1CC2CCC1O2` (single isomer, unassigned) [Compound 140A, N-(3-(9H-Carbazol-9-yl)-2-hydroxypropyl)-N-(7-oxabicyclo[2.2.1]heptan-2-yl)methanesulfonamide], the EC50 is reported as 503 nM.
With `CC1(N(CC(O)Cn2c3ccccc3c3ccccc32)S(C)(=O)=O)CCCC1` (stereo not drawn) [Compound 143, N-(3-(9H-Carbazol-9-yl)-2-hydroxypropyl)-N-(1-methylcyclopentyl)methanesulfonamide] the EC50 was 28 nM.
With `CS(=O)(=O)N(CC(O)Cn1c2ccc(F)cc2c2cc(F)ccc21)c1ccc(-c2c[nH]cn2)cc1` (stereo not drawn) [Compound 204, N-(4-(1H-Imidazol-4-yl)phenyl)-N-(3-(3,6-difluoro-9H-carbazol-9-yl)-2-hydroxypropyl)methanesulfonamide] the EC50 was 2550 nM.
Work on `CS(=O)(=O)N(CC(O)Cn1c2ccccc2c2ccccc21)c1ccccc1` (stereo not drawn) [Compound 23, N-(3-(9H-Carbazol-9-yl)-2-hydroxypropyl)-N-phenylmethanesulfonamide] yielded an EC50 of 90 nM.
Work on `O=S1(=O)CCCCN1C[C@H](O)Cn1c2ccccc2c2ccccc21` [Compound 41, (R)-N-(3-(9H-Carbazol-9-yl)-2-hydroxypropyl)-1,2-thiazinane 1,1-dioxide] yielded an EC50 of 343 nM.
`CC(C)Oc1ccc(N(CC(O)Cn2c3ccc(F)cc3c3cc(F)ccc32)S(C)(=O)=O)cc1` (stereo not drawn) [Compound 210, N-(3-(3,6-Difluoro-9H-carbazol-9-yl)-2-hydroxypropyl)-N-(4-isopropoxyphenyl)methanesulfonamide] showed an EC50 of 7210 nM.
Work on `CC1CCCC1N(CC(O)Cn1c2ccc(F)cc2c2cc(F)ccc21)S(C)(=O)=O` (stereo not drawn) [Compound 193A, N-(3-(3,6-Difluoro-9H-carbazol-9-yl)-2-hydroxypropyl)-N-(2-methylcyclopentyl)methanesulfonamide] yielded an EC50 of 427 nM.
In the case of `O=S(=O)(CCC(F)(F)F)N(Cc1ccco1)CC(O)Cn1c2ccccc2c2ccccc21` (stereo not drawn) [Compound 6, N-(3-(9H-Carbazol-9-yl)-2-hydroxypropyl)-3,3,3-trifluoro-N-(furan-2-ylmethyl)propane-1-sulfonamide], the EC50 is reported as 964 nM.
`CCN(CC(O)Cn1c2ccc(F)cc2c2cc(F)ccc21)S(C)(=O)=O` (stereo not drawn) [Compound 156, N-(3-(3,6-ifluoro-9H-carbazol-9-yl)-2-hydroxypropyl)-N-ethylmethanesulfonamide] was tested, and the EC50 was 471 nM.
Work on `CC(O)(CN1CCN(C2CCCC2)S1(=O)=O)Cn1c2ccc(F)cc2c2cc(F)ccc21` (stereo not drawn) [Compound 232] yielded an EC50 of 2580 nM.
`CC1(N(CC(O)Cn2c3ccccc3c3ccccc32)S(C)(=O)=O)CCC1` (stereo not drawn) [Compound 138, N-(3-(9H-Carbazol-9-yl)-2-hydroxypropyl)-N-(1-methylcyclobutyl)methanesulfonamide] showed an EC50 of 41 nM.
`O=S1(=O)CCCN1C[C@H](O)Cn1c2ccccc2c2ccccc21` [Compound 40, (R)-N-(3-(9H-Carbazol-9-yl)-2-hydroxypropyl)isothiazolidine 1,1-dioxide] was tested, and the EC50 was 179 nM.
For `CS(=O)(=O)N(CC(O)Cn1c2ccccc2c2ccccc21)C1CCCC1` (stereo not drawn) [Compound 58, N-(3-(9H-Carbazol-9-yl)-2-hydroxypropyl)-N-cyclopentylmethanesulfonamide], the EC50 was 150 nM.
`CC(C)N1CCN(CC(C)(O)Cn2c3ccc(F)cc3c3cc(F)ccc32)S1(=O)=O` (stereo not drawn) [Compound 225] was tested, and the EC50 was 3090 nM.
Work on `CC1CCCN(CC(O)Cn2c3ccccc3c3ccccc32)S1(=O)=O` (stereo not drawn) [Compound 111, N-(3-(9H-Carbazol-9-yl)-2-hydroxypropyl)-6-methyl-1,2-thiazinane-1,1-dioxide] yielded an EC50 of 84 nM.
Work on `O=S1(=O)Cc2ccccc2N1CC(O)Cn1c2ccccc2c2ccccc21` (stereo not drawn) [Compound 36, N-(3-(9H-Carbazol-9-yl)-2-hydroxypropyl)-1,3-dihydrobenzo[c]isothiazole 2,2-dioxide] yielded an EC50 of 539 nM.
`O=S1(=O)CCCN1CC(O)Cn1c2ccc(F)cc2c2cc(F)ccc21` (stereo not drawn) [Compound 87, N-(3-(3,6-Difluoro-9H-carbazol-9-yl)-2-hydroxypropyl)-isothiazolidine-1,1-dioxide] gave an EC50 of 20 nM.
Compound `O=S(=O)(C1CCCCC1)N(Cc1ccco1)CC(O)Cn1c2ccccc2c2ccccc21` (stereo not drawn) [Compound 84, N-(3-(9H-Carbazol-9-yl)-2-hydroxypropyl)-N-(furan-2-ylmethyl)cyclohexanesulfonamide] has an EC50 of 892 nM.
`CC1CCCCC1N(CC(O)Cn1c2ccccc2c2ccccc21)S(C)(=O)=O` (single isomer, unassigned) [Compound 127, N-(3-(9H-Carbazol-9-yl)-2-hydroxypropyl)-N-(2-methylcyclohexyl)methanesulfonamide] showed an EC50 of 4010 nM.
Compound `O=S1(=O)C(F)CCN1CC(O)Cn1c2ccccc2c2ccccc21` (stereo not drawn) [Compound 120, 2-(3-(9H-Carbazol-9-yl)-2-hydroxypropyl)-5-fluoro-isothiazolidine-1,1-dioxide] has an EC50 of 23 nM.
`CS(=O)(=O)N(CC(O)Cn1c2ccc(F)cc2c2cc(F)ccc21)c1ccc(OC2CC2)cc1` (stereo not drawn) [Compound 212, N-(4-Cyclopropoxyphenyl)-N-(3-(3,6-difluoro-9H-carbazol-9-yl)-2-hydroxypropyl)methanesulfonamide] was tested, and the EC50 was 1800 nM.
For `CC(C)CS(=O)(=O)N(Cc1ccco1)CC(O)Cn1c2ccccc2c2ccccc21` (stereo not drawn) [Compound 13, N-(3-(9H-Carbazol-9-yl)-2-hydroxypropyl)-N-(furan-2-ylmethyl)-2-methylpropane-1-sulfonamide], the EC50 was 454 nM.
`O=S1(=O)CCCN1CC(O)Cn1c2cc(F)ccc2c2c(F)cccc21` (stereo not drawn) [Compound 97, N-(3-(2,5-Difluoro-9H-carbazol-9-yl)-2-hydroxypropyl)-isothiazolidine-1,1-dioxide] was tested, and the EC50 was 319 nM.
`CC(O)(CN1CCCN(C2CCCCC2)S1(=O)=O)Cn1c2ccc(F)cc2c2cc(F)ccc21` (stereo not drawn) [Compound 223, 2-(3-(3,6-Difluoro-9H-carbazol-9-yl)-2-hydroxy-2-methylpropyl)-6-cyclohexyl-1,2,6-thiadiazinane-1,1-dioxide] gave an EC50 of 6790 nM.
`O=S1(=O)CCCN1CC(O)Cn1c2ccccc2c2ccccc21` (stereo not drawn) [Compound 20, N-(3-(9H-Carbazol-9-yl)-2-hydroxypropyl)isothiazolidine 1,1-dioxide] was tested, and the EC50 was 29 nM.
Compound `O=S(=O)(CC1CCCCO1)N(Cc1ccco1)CC(O)Cn1c2ccccc2c2ccccc21` (stereo not drawn) [Compound 18, N-(3-(9H-Carbazol-9-yl)-2-hydroxypropyl)-N-(furan-2-ylmethyl)-1-(tetrahydro-2H-pyran-2-yl)methanesulfonamide] has an EC50 of 3760 nM.
With `O=S1(=O)N(CC(O)Cn2c3ccc(F)cc3c3cc(F)ccc32)CCN1C1CCCC1` (stereo not drawn) [Compound 231] the EC50 was 1500 nM.
`CC(C)CN(CC(O)Cn1c2ccccc2c2ccccc21)S(C)(=O)=O` (stereo not drawn) [Compound 49, N-(3-(9H-Carbazol-9-yl)-2-hydroxypropyl)-N-isobutylmethanesulfonamide] gave an EC50 of 100 nM.
Work on `CS(=O)(=O)N(CC(O)Cn1c2ccccc2c2ccccc21)CC1CCCC1` (stereo not drawn) [Compound 50, N-(3-(9H-Carbazol-9-yl)-2-hydroxypropyl)-N-(cyclopentylmethyl)methanesulfonamide] yielded an EC50 of 148 nM.
Compound `CS(=O)(=O)N(CC(O)Cn1c2ccccc2c2ccccc21)c1cccc(C(N)=O)c1` (stereo not drawn) [Compound 74, 3-(N-(3-(9H-Carbazol-9-yl)-2-hydroxypropyl)methylsulfonamido)benzamide] has an EC50 of 7620 nM.
`O=S1(=O)N(CC(O)Cn2c3ccc(F)cc3c3cc(F)ccc32)CCN1C1CCC1` (stereo not drawn) [Compound 234] was tested, and the EC50 was 289 nM.
In the case of `O=S1(=O)CCCCN1CC(O)Cn1c2ccc(F)cc2c2ccc(F)cc21` (stereo not drawn) [Compound 100, N-(3-(2,6-Diflouoro-9H-carbazol-9-yl)-2-hydroxypropyl)-1,2-thiazinane 1,1-dioxide], the EC50 is reported as 32 nM.
Compound `Cc1ccc(S(=O)(=O)N(C)c2ccc(N(CC(O)Cn3c4ccccc4c4ccccc43)S(C)(=O)=O)cc2)cc1` (stereo not drawn) [Compound 31, N-(4-(N-(3-(9H-Carbazol-9-yl)-2-hydroxypropyl)methylsulfonamido)phenyl)-N,4-dimethylbenzenesulfonamide] has an EC50 of 1400 nM.
`O=S(=O)(C1CCOC1)N(Cc1ccco1)CC(O)Cn1c2ccccc2c2ccccc21` (stereo not drawn) [Compound 85, N-(3-(9H-Carbazol-9-yl)-2-hydroxypropyl)-N-(furan-2-ylmethyl)tetrahydrofuran-3-sulfonamide] showed an EC50 of 510 nM.
`COC(=O)N1CCCC(N(CC(O)Cn2c3ccccc3c3ccccc32)S(C)(=O)=O)C1` (stereo not drawn) [Compound 130, Methyl 3-(N-(3-(9H-carbazol-9-yl)-2-hydroxypropyl)methylsulfonamido)piperidine-1-carboxylate] was tested, and the EC50 was 636 nM.
Compound `CS(=O)(=O)N1CCCCC1C(O)Cn1c2ccccc2c2ccccc21` (stereo not drawn) [Compound 242, 2-(9H-Carbazol-9-yl)-1-(1-(methylsulfonyl)-piperidin-2-yl)ethanol] has an EC50 of 494 nM.
`CCCN(CC(C)(O)Cn1c2ccc(F)cc2c2cc(F)ccc21)S(C)(=O)=O` (stereo not drawn) [Compound 151, N-(3-(3,6-Difluoro-9H-carbazol-9-yl)-2-hydroxy-2-methylpropyl)-N-propylmethanesulfonamide] gave an EC50 of 2260 nM.

Same assay, conditions: stable U2OS reporter cells harboring Per2-dLuc; luminescence monitored over 4-5 days at 35° C.
In the case of `CC1CCCC1N(CC(O)Cn1c2ccc(F)cc2c2cc(F)ccc21)S(C)(=O)=O` (single isomer, unassigned) [Compound 193C, N-(3-(3,6-Difluoro-9H-carbazol-9-yl)-2-hydroxypropyl)-N-(2-methylcyclopentyl)methanesulfonamide], the EC50 is reported as 4470 nM.
